Assay results reported in publication PMC11434752, “Algerian Prickly Pear Seed By-Products: Fatty Acids Composition, Antioxidant, Enzyme Inhibitory Activities towards Tyrosinase, Urease, α-Amylase, and Cholinesterase, along with the Ability to Protect from Thermal Protein Denaturation” (Pharmaceuticals, 2024).
pIC50: −log10 of the molar value.

Molecular target: urease (Canavalia ensiformis, UniProt P07374)
Experiment: biochemical

Sequence of urease (P07374 whole entry): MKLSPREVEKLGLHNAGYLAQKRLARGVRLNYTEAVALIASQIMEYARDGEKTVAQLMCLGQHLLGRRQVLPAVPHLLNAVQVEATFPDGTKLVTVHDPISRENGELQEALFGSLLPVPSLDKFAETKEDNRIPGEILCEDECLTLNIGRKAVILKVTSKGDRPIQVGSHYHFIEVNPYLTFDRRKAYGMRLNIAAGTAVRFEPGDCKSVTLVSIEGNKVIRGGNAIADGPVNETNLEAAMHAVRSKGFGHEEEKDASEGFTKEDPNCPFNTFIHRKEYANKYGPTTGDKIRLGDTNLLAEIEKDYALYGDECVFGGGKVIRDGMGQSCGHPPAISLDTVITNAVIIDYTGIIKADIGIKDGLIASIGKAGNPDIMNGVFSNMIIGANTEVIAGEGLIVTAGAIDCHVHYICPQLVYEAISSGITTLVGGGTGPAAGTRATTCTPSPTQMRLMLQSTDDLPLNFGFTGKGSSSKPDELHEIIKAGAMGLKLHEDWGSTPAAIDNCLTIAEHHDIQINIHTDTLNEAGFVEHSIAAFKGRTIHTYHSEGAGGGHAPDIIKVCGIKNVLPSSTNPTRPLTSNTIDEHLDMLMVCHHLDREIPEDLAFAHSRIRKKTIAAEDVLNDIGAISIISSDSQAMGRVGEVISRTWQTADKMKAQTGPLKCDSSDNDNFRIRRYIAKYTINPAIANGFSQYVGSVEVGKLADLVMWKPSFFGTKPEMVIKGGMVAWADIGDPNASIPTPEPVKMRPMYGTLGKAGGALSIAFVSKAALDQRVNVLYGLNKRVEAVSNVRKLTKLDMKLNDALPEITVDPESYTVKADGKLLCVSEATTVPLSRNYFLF

`NC(N)=S` [Thiourea] gave a pIC50 of 3.96.
